Source: patent US8119614B2, “Substitution derivatives of N6-benzyladenosine, methods of their preparation, their use for preparation of drugs, cosmetic preparations and growth regulators, pharmaceutical preparations, cosmetic preparations and growth regulators containing these compounds” (Ustav Experimentalni Botaniky Akademie Ved Ceske Republiky, priority 2002, dated 2012)

Experiments:
[1] = tested on: human erythroleukaemia K562; assay: In vitro cytotoxic activity, Calcein AM assay, K-562; type: cell-based; settings: 72 hours, read-out: IC 50 K-562
Text: (§1) One of the parameters used, as the basis for cytotoxicity assays, is the metabolic activity of viable cells. For example, a microtiter assay, which uses the Calcein AM, is now widely used to quantitate cell proliferation and cytotoxicity. For instance, this assay is used in drug screening programs and in chemosensitivity testing. Because only metabolically active cells cleave Calcein AM, these assays detect viable cells exclusively. The quantity of reduced Calcein AM corresponds to the number of vital cells in the culture.
(§2) Human T-lymphoblastic leukemia cell line CEM; promyelocytic HL-60 and monocytic U937 leukemias; breast carcinoma cell lines MCF-7; cervical carcinoma cells HELA; mouse fibroblasts NIH3T3; human erythroleukaemia K562 and human malignant melanoma cells G361 were used for routine screening of compounds. The cells were maintained in Nunc/Corning 80 cm^2 plastic tissue culture flasks and cultured in cell culture medium (DMEM with 5 g/l glucose, 2 mM glutamine, 100 U/ml penicillin, 100 μg/ml streptomycin, 10% fetal calf serum and sodium bicarbonate).
(§3) The cell suspensions that were prepared and diluted according to the particular cell type and the expected target cell density (10^4 cells per well based on cell growth characteristics) were added by pipette (80 μl) into 96/well microtiter plates. Inoculates were allowed a pre-incubation period of 24 hours at 37° C. and 5% CO2 for stabilisation. Four-fold dilutions of the intended test concentration were added at time zero in 20 μl aliquots to the microtiter plate wells. Usually, test compound was evaluated at six 4-fold dilutions. In routine testing, the highest well concentration was 166.7 μM, but it can be the matter of change dependent on the agent. All drug concentrations were examined in duplicates. Incubations of cells with the test compounds lasted for 72 hours at 37° C., in 5% CO2 atmosphere and 100% humidity. At the end of incubation period, the cells were assayed by using the Calcein AM. Ten microliters of the stock solution were pipetted into each well and incubated further for 1 hours. Fluorescence (FD) was measured with the Labsystem FIA Reader Fluoroscan Ascent (UK). The tumour cell survival (GI50) was calculated using the following equitation: GI50=(FDdrug exposed well/mean FDcontrol wells)×100%. The GI50 value, the drug concentration lethal to 50% of the tumour cells, was calculated from the obtained dose response curves (FIG. 3).

[2] = tested on: Triticum aestivum cv. Hereward; assay: Senescence inhibition on winter wheat leaf segments (chlorophyll retention); type: in vivo; settings: for Concentration with highest activity: chlorophyll retention in excised wheat leaf tips, 96 h dark; for Activity (%) [10^−4 mol · l^−1 BAP = 100%]: chlorophyll retention, at concentration with highest activity
Method: Seeds of winter wheat, Triticum aestivum cv. Hereward, were washed under running water for 24 hours and then sown on vermiculite soaked with Knop's solution. They were placed in the grown chamber at 15° C. with a 16/8 h light period at 50 μmol·m^−2·s^−1. After 7 days, the first leaf was fully developed and the second leaf had started to grow. A tip section of the first leaf, approximately 35 mm long, was removed from 5 seedlings and trimmed slightly to a combined weight of 100 mg. The basal ends of the five leaf tips were placed in the wells of a microtiter polystyrene plate containing 150 μl of a cytokinin solution each. The entire plate was inserted into a plastic box lined with paper tissues soaked in distilled water to prevent leaf sections from drying out. After a 96 h incubation in the dark at 25° C., the leaves were removed and chlorophyll extracted by heating at 80° C. for 10 min in 5 ml of 80% ethanol (v/v). The sample volume was then restored to 5 ml by the addition of 80% ethanol (v/v). The absorbency of the extract was recorded at 665 nm. In addition, chlorophyll extracts from fresh leaves and leaf tips incubated in deionised water were measured. From the obtained data, the concentration with highest activity was selected for each compound tested. Relative activity of the compound at this concentration was calculated (Tab. 10). The activity obtained for 10^−4 M 6-benzylaminopurine (BAP) was postulated as 100%. The values shown are means of five replicates and the whole experiment was repeated twice. The cytokinins to be tested were dissolved in dimethylsulfoxide (DMSO) and the solution brought up to 10^−3M with distilled water. This stock was further diluted in distilled water to concentrations ranging from 10^−8M to 10^−4M.

mouse fibroblasts NIH3T3 = assay: In vitro cytotoxic activity, Calcein AM assay, NIH-3T3; type: cell-based; settings: 72 hours, read-out: IC 50 NIH-3T3
Text: as §1, §2, §3

[3] = tested on: Human T-lymphoblastic leukemia cell line CEM; assay: In vitro cytotoxic activity, Calcein AM assay, CEM; type: cell-based; settings: 72 hours
Text: as §1, §2, §3

HOS = assay: In vitro cytotoxic activity, Calcein AM assay, HOS; type: cell-based; settings: 72 hours
promyelocytic HL-60 = assay: In vitro cytotoxic activity, Calcein AM assay, HL60; type: cell-based, human; settings: 72 hours, read-out: IC 50 HL60
Text: as §1, §2, §3

[4] = tested on: breast carcinoma cell lines MCF-7; assay: In vitro cytotoxic activity, Calcein AM assay, MCF7; type: cell-based, human; settings: 72 hours, read-out: IC 50 MCF7
Text: as §1, §2, §3

[5] = tested on: Amaranthus caudatus cotyledon/hypocotyl explants; assay: Amaranthus bioassay (betacyanin content); type: in vivo; settings: for Concentration with highest activity: 48 h dark; for Activity (%) [10^−5 mol · l^−1 BAP = 100%]: at concentration with highest activity
Method: Standard Amaranthus bioassay was performed with several modifications. The seeds of Amaranthus caudatus var. atropurpurea were surface-sterilised in 10% N-chlorobenzenesulfonamide (w/v) for 10 min and washed 5 times in deionized water. They were placed in 15 cm Petri dishes containing paper tissues saturated with deionized water. After 72 h of cultivation at 25° C. in darkness, the roots of the seedlings were cut off. The explants, consisting of two cotyledons and hypocotyls, were placed in 5 cm Petri dishes on two layers of filter paper soaked in 1 ml of incubation medium containing 10 μmol NA2HPO4-KH2PO4, pH 6.8, 5 μmol tyrosine and the cytokinin to be tested. There were 20 explants per dish. The procedure was carried out under a green safe light in a darkroom. After a 48 h of incubation at 25° C. in darkness, betacyanin was extracted by freezing the explants in 4 ml […] acetic acid. The concentration of betacyanin was determined by comparing the absorbance at 537 nm and 620 nm as follows: ΔA=[…]-[…]. From the obtained data, the concentration with highest activity was selected for each compound tested. Relative activity of the compound at this concentration was calculated (Tab. 12). […] The values shown in table 8 are means of five replicates and the entire test was repeated twice. The cytokinins to be tested were dissolved in dimethylsulfoxide (DMSO) and the solution brought up to 10^-3M with distilled water. This stock was further diluted in the respective media used for the biotest to concentrations ranging from 10^-8M to 10^-4M. […] From the data obtained (FIG. 14) the maximum effective concentration of the tested compound was calculated as well as its relative effectiveness at this concentration (Table 12). […]

Compound	IC50 [1]	Concentration with highest activity [2]	Activity (%) [10^−4 mol · l^−1 BAP = 100%] [2]	IC50 (mouse fibroblasts NIH3T3)	IC50 [3]	IC50 (HOS)	IC50 (promyelocytic HL-60)	IC50 [4]	Concentration with highest activity [5]	Activity (%) [10^−5 mol · l^−1 BAP = 100%] [5]
OC[C@H]1O[C@@H](n2cnc3c(NCc4ccc(F)c(F)c4F)ncnc32)[C@H](O)[C@@H]1O [2,3,4-trifluorobenzylamino, 6-(2,3,4-trifluorobenzylamino)purine riboside]	> 167 µM	10^−4 mol · l^−1	144 ± 12%	> 167 µM	58.2 µM	> 167 µM	13 µM	> 167 µM	–	–
COc1ccc(CNc2ncnc3c2ncn3[C@@H]2O[C@H](CO)[C@@H](O)[C@H]2O)c(OC)c1 [2,4-dimethoxybenzylamino, 6-(2,4-dimethoxybenzylamino)purine riboside]	> 167 µM	–	–	> 167 µM	> 167 µM	> 167 µM	39 µM	> 167 µM	10^−5 mol · l^−1	3 ± 3%
COc1ccc(CNc2ncnc3c2ncn3[C@@H]2O[C@H](CO)[C@@H](O)[C@H]2O)cc1OC [3,4-dimethoxybenzylamino, 6-(3,4-dimethoxybenzylamino)purine riboside]	–	10^−4 mol · l^−1	47 ± 6%	–	–	–	–	–	10^−4 mol · l^−1	2 ± 1%
COc1cc(CNc2ncnc3c2ncn3[C@@H]2O[C@H](CO)[C@@H](O)[C@H]2O)cc(OC)c1 [3,5-dimethoxyxybenzylamino, 6-(3,5-dimethoxybenzylamino)purine riboside]	> 167 µM	–	–	> 167 µM	–	> 167 µM	18.8 µM	> 167 µM	–	–
O=[N+]([O-])c1cccc(CNc2ncnc3c2ncn3[C@@H]2O[C@H](CO)[C@@H](O)[C@H]2O)c1 [3-nitrobenzylamino, 6-(3-nitrobenzylamino)purine riboside]	–	–	–	–	–	–	–	–	10^−4 mol · l^−1	66 ± 7%
O=[N+]([O-])c1ccc(CNc2ncnc3c2ncn3[C@@H]2O[C@H](CO)[C@@H](O)[C@H]2O)cc1 [4-nitrobenzylamino, 6-(4-nitrobenzylamino)purine riboside]	–	–	–	–	–	–	–	–	10^−4 mol · l^−1	25 ± 3%
OCC1OC(n2cnc3c(NCc4ccccc4Cl)nc(Cl)nc32)C(O)C1O (centres unmarked) [R2 = Cl, 2-chlorobenzylamino]	61 µM	–	–	> 167 µM	8.5 µM	> 167 µM	1.2 µM	> 167 µM	–	–
OCC1OC(n2cnc3c(NCc4ccccc4F)nc(Cl)nc32)C(O)C1O (centres unmarked) [R2 = Cl, 2-fluorobenzylamino]	30 µM	–	–	–	4.2 µM	> 167 µM	2.5 µM	> 167 µM	–	–
OC[C@H]1O[C@@H](n2cnc3c(NCc4cccc(Cl)c4)nc(Cl)nc32)[C@H](O)[C@@H]1O [R2 = Cl, 3-chlorobenzylamino]	28 µM	–	–	> 167 µM	1.1 µM	> 167 µM	0.6 µM	> 167 µM	–	–
OCC1OC(n2cnc3c(NCc4ccc(Cl)cc4)nc(Cl)nc32)C(O)C1O (centres unmarked) [R2 = Cl, 4-chlorobenzylamino]	15 µM	–	–	> 167 µM	5.8 µM	> 167 µM	5 µM	> 167 µM	–	–
OC[C@H]1O[C@@H](n2cnc3c(NCc4ccc(F)cc4)nc(Cl)nc32)[C@H](O)[C@@H]1O [R2 = Cl, 4-fluorobenzylamino]	5.8 µM	–	–	> 167 µM	1.5 µM	19 µM	0.7 µM	12 µM	–	–
Nc1nc(NCc2ccccc2Cl)c2ncn(C3OC(CO)C(O)C3O)c2n1 (centres unmarked) [R2 = NH2,2-chlorobenzylamino]	78 µM	–	–	> 167 µM	24.7 µM	> 167 µM	10.3 µM	> 167 µM	–	–
Nc1nc(NCc2ccccc2F)c2ncn([C@@H]3O[C@H](CO)[C@@H](O)[C@H]3O)c2n1 [R2 = NH2,2-fluorobenzylamino]	45 µM	–	–	–	14.5 µM	> 167 µM	8.7 µM	> 167 µM	–	–
Nc1nc(NCc2cccc(Cl)c2)c2ncn([C@@H]3O[C@H](CO)[C@@H](O)[C@H]3O)c2n1 [R2 = NH2,3-chlorobenzylamino]	43 µM	–	–	> 167 µM	10.2 µM	> 167 µM	5.8 µM	> 167 µM	–	–
Nc1nc(NCc2ccc(F)cc2)c2ncn([C@@H]3O[C@H](CO)[C@@H](O)[C@H]3O)c2n1 [R2 = NH2,4-fluorobenzylamino]	13 µM	–	–	> 167 µM	12.1 µM	43 µM	2.9 µM	25 µM	–	–
CSc1nc(NCc2ccccc2Cl)c2ncn([C@@H]3O[C@H](CO)[C@@H](O)[C@H]3O)c2n1 [R2 = SCH3,2-chlorobenzylamino]	78 µM	–	–	> 167 µM	14.6 µM	> 167 µM	7.4 µM	> 167 µM	–	–
CSc1nc(NCc2ccccc2F)c2ncn([C@@H]3O[C@H](CO)[C@@H](O)[C@H]3O)c2n1 [R2 = SCH3,2-fluorobenzylamino]	42 µM	–	–	–	9.7 µM	> 167 µM	11.4 µM	> 167 µM	–	–
CSc1nc(NCc2cccc(Cl)c2)c2ncn([C@@H]3O[C@H](CO)[C@@H](O)[C@H]3O)c2n1 [R2 = SCH3,3-chlorobenzylamino]	35 µM	–	–	> 167 µM	13.2 µM	> 167 µM	6.1 µM	> 167 µM	–	–
